According to patent US12246009B2, “Compositions and methods for treating neurodegenerative, myodegenerative, and lysosomal storage disorders” (GEORGETOWN UNIVERSITY, priority 2018, dated 2025):
Entries after “also recorded” stand apart in the source; their conditions may differ.

Test system: α-synuclein
Assay: α-synuclein ELISA in α-synuclein-transfected B35 cells
Format: cell-based, rat
Protocol: Rat neuroblastoma B35 cells were grown in Dulbecco's Modified Eagle's Medium (DMEM) with 10% Fetal Bovine Serum (FBS) and 1% penicillin/streptomycin and incubated at 37° C. with 5% CO2. For the experiments, cells were transferred to 12-well plates (Cat. #150628, ThermoFisher, Waltham, MA) and grown to at least 70% confluence. Transient transfection was performed with 3 μg P301 L tau (Cat. #30145, Addgene) cDNA or 3 μg human α-synuclein cDNA using Fugene HD transfection reagent (Cat. #E2311, Promega, Madison WI) for 24 hours. Cells were treated with 1 mM, 100 μM, 10 μM, 1 μM, 0.1 μM, 0.01 μM, and 0.001 μM dissolved in DMSO or an equivalent 5 ul of DMSO for 5 hours. Cell culture media was collected and cells were harvested using sodium-tris, EDTA, NP-40 (STEN) buffer and centrifuged at 10,000×g for 20 minutes at 4′C and supernatant was collected. Cell viability was determined via lactate dehydrogenase assay (Cat. #88954, Thermofisher) and MTT assay (Cat. #V13154, Thermofisher). Protein was extracted by removing culture medium and adding 0.2 ml 1× STEN buffer (50 mM. Tris (pH 7.6), 150 mM NaCl, 2 mM EDTA, 0.2% NP-40, 0.2% BSA, 20 mM. PMSF and protease cocktail inhibitor) to cell layer and incubated on ice for 10 minutes. The bottom of the well was scraped and allowed to incubate on ice for an additional 10 minutes. Cell lysates were collected, stored at −80° C., and used for additional analyses.
To perform transient transfection of α-synuclein into the rat neuroblastoma B35 cells FuGene® HD Transfection Reagent (Promega Corporation, Madison, WI) was used. Cells were grown in 12-well dishes. […]
Human α-synuclein and p-tau ELISA were performed using 50 μl (1 μg/4 μl) of cell lysates detected with 50 μl primary antibody (3 h) and 100 μl anti-rabbit secondary antibody (30 min) at RT. α-Synuclein levels were measured using human specific ELISA (Invitrogen Inc., Carlsbad, CA) according to manufacturer's protocols. Tau was measured using specific tau at serine 396 according to manufacturer's protocol. […]

Row | SMILES | level of alpha-synuclein (transfected B35 cells, 1 mM and 100 uM) | α-synuclein level (α-synuclein-transfected B35 cells, 24 hour transfection)
1 | Cc1cccc(-c2cc3nccc(Nc4cccc(O)c4)c3s2)c1 [BK40196] | significantly reduced | –
2 | Cc1cccc(-c2cc3nccc(N4CCOCC4)c3s2)c1 [BK40197, 4-(2-(m-Tolyl)thieno[3,2-b]pyridin-7-yl)morpholine] | – | does not reduce alpha-synuclein; also recorded: does not significantly reduce
